From article PMC7156458, “Synthetic biology based construction of biological activity-related library of fungal decalin-containing diterpenoid pyrones” (Nature Communications, 2020)

Target: Aβ42 (Homo sapiens, UniProt P05067)
Experiment: Th-T (thioflavin-T) assay of Aβ42 aggregation
Format: biochemical
Details: for Th-T fluorescence, mean of three wells: compound at 50

Chain of Aβ42 (P05067 672-713): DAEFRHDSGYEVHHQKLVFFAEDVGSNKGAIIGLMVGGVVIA

## C=C1CCC2C(C)(CCC=C(C)C)C(O)CCC2(C)C1Cc1c(OC)oc(C)c(C(=O)OC)c1=O (stereo not drawn) [Compound 14]
Reading M54 of time course
  Th-T fluorescence, mean of three wells: 4.776
Reading M55 of time course
  Th-T fluorescence, mean of three wells: 4.689
Reading M56 of time course
  Th-T fluorescence, mean of three wells: 4.625
Reading M57 of time course
  Th-T fluorescence, mean of three wells: 4.524
Reading M58 of time course
  Th-T fluorescence, mean of three wells: 4.45
Reading M59 of time course
  Th-T fluorescence, mean of three wells: 4.296
Reading M60 of time course
  Th-T fluorescence, mean of three wells: 4.2063
Reading M61 of time course
  Th-T fluorescence, mean of three wells: 4.042
Reading M62 of time course
  Th-T fluorescence, mean of three wells: 3.946
Concentration 10, unit not given, time-course reading M129
  Th-T fluorescence of Aβ42 with compound, mean of three wells (Fig. 7a source data): 2.897
Concentration 10, unit not given, time-course reading M130
  Th-T fluorescence of Aβ42 with compound, mean of three wells (Fig. 7a source data): 2.933
Concentration 10, unit not given, time-course reading M131
  Th-T fluorescence of Aβ42 with compound, mean of three wells (Fig. 7a source data): 2.925
Concentration 10, unit not given, time-course reading M132
  Th-T fluorescence of Aβ42 with compound, mean of three wells (Fig. 7a source data): 2.913
Concentration 10, unit not given, time-course reading M133
  Th-T fluorescence of Aβ42 with compound, mean of three wells (Fig. 7a source data): 2.914
Concentration 10, unit not given, time-course reading M134
  Th-T fluorescence of Aβ42 with compound, mean of three wells (Fig. 7a source data): 2.928
Concentration 10, unit not given, time-course reading M135
  Th-T fluorescence of Aβ42 with compound, mean of three wells (Fig. 7a source data): 2.926
Concentration 10, unit not given, time-course reading M136
  Th-T fluorescence of Aβ42 with compound, mean of three wells (Fig. 7a source data): 2.935
Concentration 10, unit not given, time-course reading M137
  Th-T fluorescence of Aβ42 with compound, mean of three wells (Fig. 7a source data): 2.902
Concentration 10, unit not given, time-course reading M138
  Th-T fluorescence of Aβ42 with compound, mean of three wells (Fig. 7a source data): 2.929
Concentration 10, unit not given, time-course reading M139
  Th-T fluorescence of Aβ42 with compound, mean of three wells (Fig. 7a source data): 2.934
Concentration 10, unit not given, time-course reading M140
  Th-T fluorescence of Aβ42 with compound, mean of three wells (Fig. 7a source data): 2.924
Concentration 10, unit not given, time-course reading M141
  Th-T fluorescence of Aβ42 with compound, mean of three wells (Fig. 7a source data): 2.927
Concentration 10, unit not given, time-course reading M142
  Th-T fluorescence of Aβ42 with compound, mean of three wells (Fig. 7a source data): 2.953
Concentration 10, unit not given, time-course reading M143
  Th-T fluorescence of Aβ42 with compound, mean of three wells (Fig. 7a source data): 2.943
Concentration 10, unit not given, time-course reading M144
  Th-T fluorescence of Aβ42 with compound, mean of three wells (Fig. 7a source data): 2.936
Concentration 10, unit not given, time-course reading M145
  Th-T fluorescence of Aβ42 with compound, mean of three wells (Fig. 7a source data): 2.952
Concentration 20, unit not given, time-course reading M129
  Th-T fluorescence of Aβ42 with compound, mean of three wells (Fig. 7a source data): 1.587
Concentration 20, unit not given, time-course reading M130
  Th-T fluorescence of Aβ42 with compound, mean of three wells (Fig. 7a source data): 1.596
Concentration 20, unit not given, time-course reading M131
  Th-T fluorescence of Aβ42 with compound, mean of three wells (Fig. 7a source data): 1.618
Concentration 20, unit not given, time-course reading M132
  Th-T fluorescence of Aβ42 with compound, mean of three wells (Fig. 7a source data): 1.578
Concentration 20, unit not given, time-course reading M133
  Th-T fluorescence of Aβ42 with compound, mean of three wells (Fig. 7a source data): 1.602
Concentration 20, unit not given, time-course reading M134
  Th-T fluorescence of Aβ42 with compound, mean of three wells (Fig. 7a source data): 1.594
Concentration 20, unit not given, time-course reading M135
  Th-T fluorescence of Aβ42 with compound, mean of three wells (Fig. 7a source data): 1.594
Concentration 20, unit not given, time-course reading M136
  Th-T fluorescence of Aβ42 with compound, mean of three wells (Fig. 7a source data): 1.5818
Concentration 20, unit not given, time-course reading M137
  Th-T fluorescence of Aβ42 with compound, mean of three wells (Fig. 7a source data): 1.578
Concentration 20, unit not given, time-course reading M138
  Th-T fluorescence of Aβ42 with compound, mean of three wells (Fig. 7a source data): 1.586
Concentration 20, unit not given, time-course reading M139
  Th-T fluorescence of Aβ42 with compound, mean of three wells (Fig. 7a source data): 1.563
Concentration 20, unit not given, time-course reading M140
  Th-T fluorescence of Aβ42 with compound, mean of three wells (Fig. 7a source data): 1.578
Concentration 20, unit not given, time-course reading M141
  Th-T fluorescence of Aβ42 with compound, mean of three wells (Fig. 7a source data): 1.561
Concentration 20, unit not given, time-course reading M142
  Th-T fluorescence of Aβ42 with compound, mean of three wells (Fig. 7a source data): 1.586
Concentration 20, unit not given, time-course reading M143
  Th-T fluorescence of Aβ42 with compound, mean of three wells (Fig. 7a source data): 1.575
Concentration 20, unit not given, time-course reading M144
  Th-T fluorescence of Aβ42 with compound, mean of three wells (Fig. 7a source data): 1.583
Concentration 20, unit not given, time-course reading M145
  Th-T fluorescence of Aβ42 with compound, mean of three wells (Fig. 7a source data): 1.572
Concentration 50, unit not given, time-course reading M129
  Th-T fluorescence of Aβ42 with compound, mean of three wells (Fig. 7a source data): 0.8842
Concentration 50, unit not given, time-course reading M130
  Th-T fluorescence of Aβ42 with compound, mean of three wells (Fig. 7a source data): 0.8634
Concentration 50, unit not given, time-course reading M131
  Th-T fluorescence of Aβ42 with compound, mean of three wells (Fig. 7a source data): 0.8505
Concentration 50, unit not given, time-course reading M132
  Th-T fluorescence of Aβ42 with compound, mean of three wells (Fig. 7a source data): 0.8369
Concentration 50, unit not given, time-course reading M133
  Th-T fluorescence of Aβ42 with compound, mean of three wells (Fig. 7a source data): 0.8131
Concentration 50, unit not given, time-course reading M134
  Th-T fluorescence of Aβ42 with compound, mean of three wells (Fig. 7a source data): 0.8297
Concentration 50, unit not given, time-course reading M135
  Th-T fluorescence of Aβ42 with compound, mean of three wells (Fig. 7a source data): 0.8031
Concentration 50, unit not given, time-course reading M136
  Th-T fluorescence of Aβ42 with compound, mean of three wells (Fig. 7a source data): 0.8035
Concentration 50, unit not given, time-course reading M137
  Th-T fluorescence of Aβ42 with compound, mean of three wells (Fig. 7a source data): 0.7873
Concentration 50, unit not given, time-course reading M138
  Th-T fluorescence of Aβ42 with compound, mean of three wells (Fig. 7a source data): 0.78
Concentration 50, unit not given, time-course reading M139
  Th-T fluorescence of Aβ42 with compound, mean of three wells (Fig. 7a source data): 0.7658
Concentration 50, unit not given, time-course reading M140
  Th-T fluorescence of Aβ42 with compound, mean of three wells (Fig. 7a source data): 0.7572
Concentration 50, unit not given, time-course reading M141
  Th-T fluorescence of Aβ42 with compound, mean of three wells (Fig. 7a source data): 0.7413
Concentration 50, unit not given, time-course reading M142
  Th-T fluorescence of Aβ42 with compound, mean of three wells (Fig. 7a source data): 0.7418
